Results from article PMC11259703, “A small-molecule allele-selective transcriptional inhibitor of the MIF immune susceptibility locus” (The Journal of Biological Chemistry, 2024).

Legend:
ICBP90 (UHRF1) = target: T1, ICBP90 (UHRF1) (Homo sapiens, UniProt Q96T88); experiment: AlphaScreen inhibition of purified ICBP90 SRA domain binding to biotinylated MIF promoter CATT8 DNA; confirmed by EMSA dose response
T1 construct: SET and RING finger-associated (SRA) domain, amino acids 413 to 618 (ICBP90^413-618), C-terminal 6xHis
T1 sequence (Q96T88 413-618): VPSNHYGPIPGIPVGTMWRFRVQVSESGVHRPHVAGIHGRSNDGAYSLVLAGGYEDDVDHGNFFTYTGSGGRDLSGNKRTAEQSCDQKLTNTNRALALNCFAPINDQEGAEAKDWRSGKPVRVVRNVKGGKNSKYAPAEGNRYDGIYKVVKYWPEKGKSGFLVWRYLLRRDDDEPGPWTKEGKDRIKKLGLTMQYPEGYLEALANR

[1] = tested on: ICBP90 413-618 (SRA domain); experiment: AlphaScreen; conditions: IC50 of the small-molecule inhibitor CMFT, not a DNA affinity; EMSA: LightShift kit buffer, poly(dI-dC), 20 min at 22 C, 6% native PAGE; ELISA: 10 mM Tris-HCl pH 7.5, 50 mM KCl, 1 mM DTT; AlphaScreen: same plus 0.01% …

| Molecule | IC50 (ICBP90 (UHRF1)) | IC50 [1] |
| --- | --- | --- |
| COC(=O)c1ccc(O)c2nc3c(C=O)c(O)cc(O)c3nc12 [compound 3, 1-carbomethoxy-5-formyl-4,6,8-trihydroxyphenazine] | 490 nM |  |
| MIF promoter CATT8 (-794 CATT8), 5'-biotin |  | 490 nM |
